Results: patent US20250241906A1, “ANABOLIC DRUGS STIMULATING TYPE II COLLAGEN PRODUCTION FROM CHONDROCYTES OR THEIR PROGENITORS” (UNIVERSITY OF CENTRAL FLORIDA RESEARCH FOUNDATION, INC., priority 2022, published 2025)
“Also recorded” adds a separate entry of the source. Where two headings read alike, the source gives them in different places.

Assays:
[1] = tested on: kinase phosphorylation in primary human chondrocytes; test: Phospho-kinase array on primary human chondrocyte lysate; assay type: cell-based; conditions: donor 2, 24 h, vs DMSO
Method: Phospho-kinase Array. Primary human chondrocytes were seeded at 5×10^6 cells (2×10 cm adherent dish, Corning) in growth media and allowed to adhere overnight. Growth media was replaced with chondrogenic media supplemented with 1 ng/mL TGFβ1 with DMSO or with drug […]. Cells were treated for 24 h before processing according to the manufacturer's protocol (ARY003C, R&D Systems). This phospho-kinase array contains capture antibodies to measure relative levels of phosphorylation of 37 kinases on a nitrocellulose membrane. Signal intensity was quantified using ImageJ.

[2] = tested on: type II collagen promoter (COL2A1-Gaussia luciferase) in primary human chondrocytes; test: HuCol2gLuc 3D aggregate type II collagen promoter-driven Gaussia luciferase assay; assay type: cell-based; conditions: for stimulation of type II collagen production in the screen of natural products: NCI Natural Products Set V, 5 μM continuously, 22-day assay; for cumulative luminescence: validation
Method: Chondrogenic Culture. Human COL2A1-GLuc or uninfected cells were thawed and seeded in growth media on synoviocyte matrix at 6,000 cells/cm^2 and expanded to 90-100% confluence in physioxia. Cells were trypsinized (0.25% Trypsin/EDTA; Corning), resuspended in growth media (for monolayer culture) or chondrogenic differentiation media for 3D aggregates (93.24% High-Glucose DMEM (Gibco), 1% dexamethasone 10^−5M (Sigma), 1% ITS+premix (Becton-Dickinson), 1% Glutamax (Hyclone), 1% 100 mM Sodium Pyruvate (Hyclone), 1% MEM Non-Essential Amino Acids (Hyclone), 0.26% L-Ascorbic Acid Phosphate 50 mM (Wako), 0.5% Fungizone (Life Technologies) with TGF-β1 (Peprotech) and seeded as described below.
Generation and Maintenance of 3D aggregates. To generate 3D aggregates, cells were seeded at 50,000 cells per well (in 96-well cell repellent u-bottom plates, GreinerBio) and then centrifuged at 500 RCF, 5 min. For the initial drug screen, aggregates were cultured in basal chondrogenic media (1 ng/ml TGF-β1) alone, with DMSO (vehicle control) or 5 μM of the drug compounds from the NCI library (Natural Products V, NCI). For candidate validation and subsequent studies aggregates were cultured in basal chondrogenic media (10 ng/ml TGF-β1) alone, with DMSO (vehicle control) or compounds as indicated in the results. Aggregates were cultured for three weeks in physioxic conditions, culture medium was sampled and replaced three times a week with fresh medium. An OT-2 (Opentrons) python coded robotic pipette, programmed at an aspiration height of 2 mm from the bottom of the wells and aspiration rate of 40 μl/s was utilized for addition of compound, cell feeding, and media sampling for luciferase assay. After three weeks, cell aggregates were either fixed in neutral buffered formalin for histology or medium removed and aggregates frozen dry (−20° C.) for biochemical assays.
Luciferase Assay. Conditioned culture medium sampled from aggregates in 96-wells (20 μL/well) was assessed using a stabilized Gaussia Luciferase buffer mix (50 µl/well) for a final concentration of 0.09 M MES, 0.15M Ascorbic Acid, and 4.2 μM Coelenterazine in white 96-well plates. Luminescence was measured in a plate reader (25° C., relative light units (RLU), En Vision plate reader). An OT-2 (Opentrons) python coded robotic pipette was utilized for luciferase buffer addition to white plates (GreinerBio).

HuCol2gLuc aggregates [3] = test: Metabolic assay (resazurin) on HuCol2gLuc aggregates; assay type: cell-based, human; conditions: day 22
Method: Metabolic Assay (Resazurin). Metabolic activity was assessed on day 22 by adding resazurin to a final concentration of 50 μM to each well and incubating at physioxia for 3 hours. After three hours, media (120 μl) was transferred to a 96-well black plate (Greinerbio) and fluorescence read at an excitation of 535 nm and emission at 588 nm. At OT-2 (Opentrons) python-coded robotic pipette was used to add resazurin to cell plates as well as to transfer medium to black plates.

HuCol2gLuc aggregates [4] = test: Biochemical assays (DNA, GAG, total collagen) on HuCol2gLuc aggregates; assay type: cell-based, human
Method: Biochemical Assays. Aggregates frozen at day 22, were thawed with PBS, and digested with Papain (25 μg/ml, Sigma, P4762, in 2 mM cysteine; 50 mM sodium phosphate; 2 mM EDTA at a pH 6.5, 100 μl) at 65° C. overnight. Plates were sealed with a qPCR adhesive sealing film (USA Scientific), a silicone sheet, and steel plates clamped to the plate to prevent evaporation during digestion. Half of the digest (50 μl) was transferred to another plate and frozen for hydroxyproline assessment. In the remaining digest, papain was inactivated with 0.1M sodium hydroxide (NaOH, 50 μl) followed by NaOH neutralization (100 mM Na2HPO4, 0.1 N HCL, pH 1.82, 50 μl). To quantitate DNA content, samples of the neutralized digest (20 μl) were combined with buffered Hoechst dye (#33258, 667 ng/ml, phosphate buffer pH 8, 100 μl) and fluorescence measured at an excitation of 365 nm and emission of 460 nm. For GAG assessment, 1,9-Dimethyl-methylene blue solution (195 μl) was added to neutralized digests (5 μl) and absorbance measured at 595 nm and 525 nm. Readings were corrected by subtracting 595 nm reading from 525 nm. Micrograms of DNA and GAG were calculated using a Calf thymus DNA standard (Sigma) or Chondroitin Sulfate standard (Seikagaku Corp.), respectively.
For hydroxyproline (HP) quantification, the frozen digests (50 μl) were thawed at room temperature and incubated overnight at 105° C. with 6M hydrochloric acid (200 μl). Plates were sealed to prevent evaporation. Samples were then dried at 70° C. overnight with a hydroxyproline standard (Sigma). Copper sulfate (0.15 M, 10 μl) and NaOH (2.5 M, 10 μl) were added to each well and incubated at 50° C. for 5 minutes, followed by hydrogen peroxide (6%, 10 μl) for 10 minutes. Sulfuric acid (1.5 M, 40 μl) and Ehrlich's reagent (20 μl) were added and samples incubated at 70° C. for 15 minutes. Absorbance was measured at 505 nm. Micrograms of hydroxyproline were calculated using the standard. Total collagen was calculated by the following formula (μg of HP×7.6=μg Total Collagen).

butyrylcholinesterase = butyrylcholinesterase (Homo sapiens, UniProt P06276); conditions: cited from earlier work
KB cell line = conditions: cited from earlier work
Plasmodium falciparum = conditions: cited from earlier work

Chain of butyrylcholinesterase (P06276 29-602): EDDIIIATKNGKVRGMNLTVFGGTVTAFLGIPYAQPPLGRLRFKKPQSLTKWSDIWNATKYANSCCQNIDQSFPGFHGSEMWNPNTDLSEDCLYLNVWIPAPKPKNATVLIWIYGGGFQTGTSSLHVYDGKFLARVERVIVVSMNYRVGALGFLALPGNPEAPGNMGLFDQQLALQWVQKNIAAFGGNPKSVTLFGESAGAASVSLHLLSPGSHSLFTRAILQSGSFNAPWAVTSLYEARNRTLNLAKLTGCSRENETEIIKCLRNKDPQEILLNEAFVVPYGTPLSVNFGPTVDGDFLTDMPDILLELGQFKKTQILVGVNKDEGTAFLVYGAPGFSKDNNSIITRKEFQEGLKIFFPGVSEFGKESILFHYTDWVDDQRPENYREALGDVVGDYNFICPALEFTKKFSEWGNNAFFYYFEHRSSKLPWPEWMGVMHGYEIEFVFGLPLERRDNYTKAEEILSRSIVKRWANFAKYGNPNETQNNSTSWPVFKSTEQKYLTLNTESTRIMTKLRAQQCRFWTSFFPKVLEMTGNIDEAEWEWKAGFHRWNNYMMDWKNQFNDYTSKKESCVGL

For Promoline [Drug 84], the “AKT 1/2/3 phosphorylation at T308 and S473” value [1] was “substantial decrease”, the “p53 S15, STAT3 Y705 phosphorylation and HSP 60” value [1] was “less considerable decrease” and the “phosphorylation of CREB, EGFR, and eNOS” value [1] was “modest increase”. For the same substance, the “stimulation of type II collagen production in the screen of natural products” value ([2]; listed as 84) was “stimulatory effects; also recorded: stimulatory throughout the experiment”, the “stimulation of type II collagen production in the screen of natural products” value ([2]; listed as Promoline) was “stimulate type II collagen” and the EC50 ([2]; cumulative luminescence over 22 days) was 3070 nM. The EC50 ([2]; day 3, 0-10 μM, read-out: EC50 type II collagen driven-luminescence) was 2460 nM, the EC50 ([2]; day 10, 0-10 μM, read-out: EC50 type II collagen driven-luminescence) was 2580 nM and the “stimulation of type II collagen production during the early stages” value ([2]; natural product screen, day 8 volcano plot) was “stimulate type II collagen production during the early stages”. The “day 22 luminescence normalized to DMSO vehicle control” value ([2]; screen, 5 μM, 1 ng/ml TGF-β1) was “significant increase in luminescence”, the “trend of luminescence over 22 days normalized to DMSO” value ([2]; screen, 5 μM, 1 ng/ml TGF-β1) was “increase over the control as early as day 3 with a sustained increase in expression over 22 days” and the cumulative luminescence ([2]; donor 1) was “no significant effect”. The cumulative luminescence ([2]; donor 2) was “significant increase”, the cytotoxicity (HuCol2gLuc aggregates [3]; 10 μM) was “cytotoxicity” and the “resazurin fluorescence (metabolic activity)” value (HuCol2gLuc aggregates [3]; 0-10 μM) was “dose dependent decrease”. The “glycosaminoglycan (GAG) content” value (HuCol2gLuc aggregates [4]; day 22, donor 1) was “not statistically significant”, the total collagen (HuCol2gLuc aggregates [4]; day 22, donor 1) was “no observable effect” and the DNA content (HuCol2gLuc aggregates [4]; day 22, donor 2, vs untreated) was “no change in DNA content”. The “glycosaminoglycan (GAG) content” value (HuCol2gLuc aggregates [4]; day 22, donor 2, untreated 15 μg) was “decrease in GAG content”, the total collagen (HuCol2gLuc aggregates [4]; day 22, donor 2, untreated ~14 μg) was roughly 21 µg and the DNA content (HuCol2gLuc aggregates [4]; day 22, 10 μM) was “significant decrease”. The inhibition of butyrylcholinesterase (butyrylcholinesterase) was “potent inhibitor”, the “cytotoxicity in the KB cell line” value (KB cell line) was “low cytotoxicity” and the “anti-microbial activity against Plasmodium falciparum” value (Plasmodium falciparum) was “weak anti-microbial activity”.
